# Entries after “also recorded” stand apart in the source; their conditions may differ. Structures can show the parent of a compound that is named as a salt.
# Tests used:
# humans = test: Clinical study: vasodilator; type: in vivo, human
# Source text: In the treatment of diseases associated with the blood circulation through the vessels.
# rats [1] = test: Overall behavior and reactivities in rats; type: in vivo, rat; conditions: for Observed symptoms: i.p.
# Protocol: (§1) In the neuropsychopharmacological study which follows, a solution of CRL 41 153 in distilled water (pH 1.5) was administered intraperitoneally in a volume of 20 ml/kg to male mice and 5 ml/kg to male rats.
# (§2) Groups of three animals are observed before and then 0.25 hour, 0.50 hour, 1 hour, 2 hours, 3 hours and 24 hours after the administration of CRL 41 153.
# mice [2] = test: Spontaneous motility; type: in vivo, mouse; conditions: gastric
# Protocol: 0.5 hour after they have received CRL 41 153, the mice (6 per dose, 12 control animals) are placed in an actimeter, where their motility is recorded for 30 minutes.
# [3] = Acute toxicity by intraperitoneal administration; type: in vivo, mouse; conditions: mouse, in vivo, ip; male mice
# Protocol: as §1
# male mice = test: Acute toxicity by intraperitoneal administration; type: in vivo, mouse; conditions: i.p.
# Protocol: as §1
# man = test: Clinical study: treatment of depressions; type: in vivo, human
# CNS = test: Neuropsychopharmacological profile as a whole; type: in vivo, mice and rats; conditions: conclusion of the tests
# Protocol: as §1
# mice [4] = test: Particular toxicity in grouped mice; conditions: mice
# Protocol: (§3) The number of dead animals is noted after 1 hour, 2 hours, 3 hours, 4 hours and 24 hours.
# [5] = Particular toxicity in grouped mice; conditions: mouse, ip
# Protocol: as §3
# mice [6] = test: Interaction with apomorphine in mice; type: in vivo, mouse; conditions: gastric, apomorphine 16 mg/kg s.c.
# Protocol: Groups of 6 mice receive CRL 41 153 0.5 hour before the subcutaneous injection of 1 or 16 mg/kg of apomorphine.
# [7] = test system: gravid White New Zealand female rabbits; test: Teratogenicity in gravid White New Zealand rabbits; type: in vivo, rabbit; conditions: day 5 to day 18 of gestation; for Affected foetuses, %: normal limit 1.5%
# Outline: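 Fetuses harvested by cesarean on gestation day 29 were scored for number and for any malformation (limb blockade, anury, tail or skull defects, exencephaly).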
# [8] = test system: cellular and humoral immunity; test: Delayed hypersensitivity to the red blood corpuscles of sheep; type: in vivo
# dogs = test: Cardiovascular study in anesthetized dogs; type: in vivo, dog
# Outline: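 Measurements: blood pressure, heart rate, femoral and vertebral arterial flow, rectal temperature, skin colour, and for CRL 41 194 bile colour via bile-duct catheter. Doses rose stepwise 0.1–10 mg/kg intraduodenally in solution under nembutal anaesthesia; two dogs got CRL 41 194, four CRL 41 221.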
# [9] = pH of solutions in distilled water; type: physicochemical; conditions: administered solution in distilled water, concentration not given
# Protocol: The neuropsychopharmacological study was undertaken according to the procedures described above for CRL 41 153, CRL 41 213 being adminstered intraperitoneally, in solution in distilled water, in a volume of 20 ml/kg to male mice and a volume of 5 ml/kg to male rats, and the pH of the injected solution varying with the concentration of CRL 41 213 according to the data given in Table II below.
# rats [10] = test: Investigation of stereotype movements; type: in vivo, rat; conditions: i.p., compared with amphetamine 2 mg/kg, hydrochloride
# Protocol: Immediately after the intraperitoneal administration of CRL 41 194 or amphetamine, groups of 6 rats are placed in Plexiglass boxes (20×10×10 cm). The stereotype movements are graded from 0 to 3 every 10 minutes until they wear off.
# Groups of 6 rats receive an intraperitoneal injection of CRL 41 213, distilled water or amphetamine immediately before being placed in small cages, where their stereotype behavior is graded every 10 minutes until the effect wears off.
# immunity = test: Immunological study (overall); conditions: in vivo; hydrochloride
# [11] = test system: cellular and humoral immunity; test: Test for cells forming lysis areas; conditions: in vivo
# mice [12] = test: Interaction with barbital; type: in vivo, mouse; conditions: gastric
# Protocol: Half an hour after the administration of CRL 41 153, groups of 10 mice receive an intraperitoneal injection of barbital (220 mg/kg).
# mice [13] = test: Overall behavior and reactivities in mice; type: in vivo, mouse; conditions: i.p.
# Protocol: as §1, §2
# [14] = anesthetized dogs, intraduodenal
# [15] = dogs, after product, isoprenaline 10 μg/kg
# [16] = dogs, after product, norepinephrine 2 μg/kg
smiles,measurement,setting,value
"CC(C)NC(C)C(=O)c1cc(Cl)c(N)c(Cl)c1 (centres unmarked) [CRL 41 194, 1-(4-amino-3,5-dichlorophenyl)-2-isopropylaminopropanone hydrochloride]",Vasodilator in human clinical use,humans,very active as a vasodilator
same,Stereotype movements (summary),rats [1]; dose not stated,stereotype movements (of moderate intensity)
same,Observed symptoms,rats [1]; 0.125 mg/kg,mydriasis for 2 hours (at a maximum 0.5 hour after administration)
same,Observed symptoms,rats [1]; 0.5 mg/kg,dyspnea for 0.5 hour
same,Observed symptoms,"rats [1]; 2 mg/kg, hydrochloride",mydriasis at a maximum 0.5 hour after administration; also recorded: dyspnea for 2 hours
same,Observed symptoms,"rats [1]; 8 mg/kg, hydrochloride",piloerection for 1 hour; also recorded: mydriasis for 2 hours (at a maximum 0.5 hour after administration); also recorded: dyspnea for 2 hours
same,Spontaneous motor activity,mice [2],"At the strongest dose administered gastrically (32 mg/kg), CRL 41 194 slightly reduces the spontaneous motor activity of mice"
same,LD50,[3],86 mg/kg
same,LD0 (maximum non-lethal dose),male mice,greater than 32 mg/kg
same,Result in the treatment of depressions,man,excellent results on man in the treatment of depressions at a dose of 3×5 mg per day
same,Antidepressant effects (overall),CNS,is an antidepressant
same,Particular toxicity to grouped mice,mice [4],more toxic to grouped mice than to isolated mice
same,LD50,[5]; grouped mice,27 mg/kg
same,selectivity ratio,[5]; in vivo,3.19
same,LD50,[5]; isolated mice,86 mg/kg
same,Effect on hypothermia induced by apomorphine,mice [6],"as from a dose of 2 mg/kg, administered gastrically, CRL 41 194 opposes the hypothermia"
same,Effect on righting behavior and stereotypies induced by apomorphine,mice [6],without modifying the righting behavior and the stereotypies
same,"Affected foetuses, number",[7]; 5 mg/kg daily,1
same,Total foetuses (live),[7]; 5 mg/kg daily,95
same,"Affected foetuses, %",[7]; 5 mg/kg daily,1.10%
same,"Affected foetuses, number",[7]; 10 mg/kg daily,0
same,Total foetuses (live),[7]; 10 mg/kg daily,91
same,"Affected foetuses, %",[7]; 10 mg/kg daily,0%
same,Activity on the delayed hypersensitivity reaction,[8],active on the cellular and humoral immunity
same,Vasodilator (conclusion),dogs,good vasodilator
same,Effect on hypertension induced by norepinephrine,dogs; anesthetized dogs,slightly reduced
same,Effects of isoprenaline on the blood pressure,dogs; anesthetized dogs,reduced as regards the blood pressure
same,Rectal temperature,dogs; anesthetized dogs,the rectal temperature and skin temperature rose
same,Skin temperature,dogs; anesthetized dogs,the rectal temperature and skin temperature rose
same,Effects of isoprenaline on the heart rate,"dogs; anesthetized dogs, after accumulated dose of 19.1 mg/kg intraduodenal",not modified as regards the heart rate
same,Blood pressure,dogs; [14],A drop in the diastolic blood pressure is observed at 5 mg/kg
same,Differential blood pressure,dogs; [14],an increase in the differential blood pressure as from the smallest doses
same,Femoral flow,dogs; [14],"At 0.5 mg/kg, the femoral flow increases"
same,Heart rate,dogs; [14],"At 0.5 mg/kg, the femoral flow increases at the same time as the heart rate"
same,Respiration,dogs; [14],Both dogs received respiratory stimulation
same,Vertebral flow,dogs; [14],increases the vertebral flow as from a dose of 0.1 mg/kg
same,Diastolic blood pressure after isoprenaline,dogs; [15],64 mm Hg
same,Diastolic blood pressure before isoprenaline,dogs; [15],126 mm Hg
same,Heart rate after isoprenaline,dogs; [15],262 beats/minute
same,Systolic blood pressure after norepinephrine,dogs; [16],266 mm Hg
same,Systolic blood pressure before norepinephrine,dogs; [16],208 mm Hg
same,pH,[9],4.5
same,Stereotype movements,rats [10],"At the strongest dose used (16 mg/kg), CRL 41 194 causes the appearance of stereotype movements; also recorded: The intensity of the effect obtained with 16 mg/kg is slightly lower than that obtained with 2 mg/kg of amphetamine"
same,Immunological effect (overall),immunity,immunostimulant or immunomodulating effects; also recorded: beneficial immunological properties; also recorded: behaves as an immunomodulating agent
same,Activity in the test for cells forming lysis areas,[11],active on the cellular and humoral immunity
same,Duration of the sleep induced by barbital,mice [12],"At the strongest dose administered gastrically (32 mg/kg), CRL 41 194 reduces the duration of the sleep induced by barbital in mice"
same,Observed symptoms,mice [13]; 0.25 mg/kg,weak excitation 24 hours after administration
same,Observed symptoms,mice [13]; 1 mg/kg,weak excitation 24 hours after administration
same,Observed symptoms,mice [13]; 4 mg/kg,weak excitation and an increase in the reactivity to touch about 24 hours after administration
same,Observed symptoms,"mice [13]; 16 mg/kg, hydrochloride",weak excitation 24 hours after administration; also recorded: an increase in the reactivity to touch for 24 hours; also recorded: dyspnea for 3 hours; also recorded: mydriasis for 2 hours (at a maximum 1 hour after administration); also recorded: dilation of the caudal veins for 2 hours

# — patent US4980377A, “1-(aminophenyl)-2-aminopropanone derivatives” (Laboratoire L. Lafon, priority 1984, dated 1990)
